Results as given in US4206207A, “Use of 4-carboxy-phthalato(1,2-diaminocyclohexane)-platinum (II) and alkali metal salts thereof with cyclophosphamide in alleviating L1210 murine leukemia” (priority 1978, dated 1980).
“And” between values parts separate entries of the source, which are not always exact repeats. Identical values can stand only once.

What was measured:
[1] = test system: L1210 leukemia; assay: Second screener against L1210 leukemia, day 1, 5, 9 schedule; format: in vivo, murine
Description: The compound was submitted to the Drug Development Branch of the National Cancer Institute and assigned NSC Number 271674. It was screened against the L1210 leukemia on a day 1, 5, 9 schedule and the following results were obtained:

[2] = test system: murine leukemia L1210; assay: Antileukemic activity in mice against murine leukemia L1210 (general statement); format: in vivo
Description: Some previous platinum chelate compounds show dosage limitation due to renal impairment but the free carboxyl of the present composition offers a possible route of oral […] and absorption by the stomach.

[3] = test system: L1210; assay: In vitro growth inhibition of L1210 cells; format: cell-based, murine
Description: (§1) The ID50 refers to the concentration of test compound required to
(§2) inhibit the growth of either the L1210 or L1210/DDP (NSC119875) resistant

[4] = test system: L1210/DDP; assay: In vitro growth inhibition of L1210/DDP (NSC-119875 resistant) cells; format: cell-based, murine
Description: as §1, §2

[5] = test system: L1210 leukemia; assay: NCI screen against L1210 leukemia, day 1, 5, 9 schedule; format: in vivo, murine
Description: The compound was submitted to the Drug Development Branch of the National Cancer Institute and assigned NSC Number 271674. It was screened against the L1210 leukemia on a day 1, 5, 9 schedule and the following results were obtained: […]

[6] = test system: P388 leukemia; assay: In vivo activity against P388 leukemia; conditions: Days 1,5,9,13, NSC-119875 6.7 mg/kg, NSC-271674 20.0 mg/kg
Description: (§3) Data are expressed as survival in days and as a percentage increase in […]

[7] = Lethality (LD50) in mice; conditions: mouse, in vivo
[8] = test system: Lewis lung; assay: Mouse tumor panel: Lewis lung (iv, survival time); format: in vivo; conditions: D1-9
Description: (§4) NSC-271674 Against a Panel of a Mouse Tumors
(§5) *Survival time (mean or median) assay
(§6) Data are expressed as a percentage of the survival time in days or the
(§7) tumor weights in mg of the treated mice divided by the corresponding
(§8) values for the control mice. All testing was performed using both platinu
(§9) compounds in the same experiment. The criteria for activity are as
(§10) follows: confirmed activity (activity from two separate laboratories) of
(§11) % T/C of 150 or more for survival systems and 10% or less for tumor weigh
(§12) inhibition assays. Lower levels of activity such as a % T/C of 125 for
(§13) survival systems and 42% for tumor weight inhibition assays are considere
(§14) statistically significant.

[9] = test system: L1210 leukemia; assay: L1210 leukemia in BDF1 mice, ip treatment on Day 1 only; format: in vivo; conditions: for % increase in life span (% ILS): in 1% NaHCO3
Description: The compound in 1% NaHCO3 solution was tested against the L1210 leukemia in BDF1 mice [10^6 cells given to mice on Day 0, treatment (ip) on Day 1 only] in laboratory and the following % increases in life span (%ILS) were noted: […]

[10] = test system: Colon #38; assay: Mouse tumor panel: Colon #38 (sc, tumor weight inhibition); format: in vivo; conditions: D2,9
Description: as §4
(§15) **Tumor weight inhibition assay.
as §6, §7, §8, §9, §10, §11, §12, §13, §14

[11] = Renal Toxicity Screening Protocol, toxicity compared to NSC-119875; format: in vivo
[12] = test system: L1210 leukemia; assay: L1210 leukemia in mice, treatment delayed until Day 3, singly and in combination; format: in vivo, BDF1 mice; conditions: Day 3 treatment
Description: The compound in 1% NaHCO3 solution was tested against the L1210 leukemia in BDF1 mice [10^6 cells given to mice on Day 0, treatment (ip) on Day 1 only] in laboratory and the following % increases in life span (%ILS) were noted:
When treatment was delayed until Day 3, 5 mg/kg gave 51% ILS, 42% ILS and 39% ILS in three experiments.

[13] = test system: B16 melanoma; assay: Mouse tumor panel: B16 melanoma (ip, survival time); format: in vivo; conditions: D1-9
Description: as §4, §5, §6, §7, §8, §9, §10, §11, §12, §13, §14

[14] = test system: P388/DDP; assay: In vivo activity against P388/DDP leukemia with acquired resistance to NSC-119875; conditions: Days 1,5,9,13, NSC-119875 6.7 mg/kg, NSC-271674 20.0 mg/kg
Description: P388/DDP refers to a tumor line with acquired resistance to NSC119875.
as §3

[15] = test system: CD8F1 mammary; assay: Mouse tumor panel: CD8F1 mammary (sc, tumor weight inhibition); format: in vivo; conditions: Q7DX5
Description: as §4, §15, §6, §7, §8, §9, §10, §11, §12, §13, §14

[16] = test system: L1210; assay: Mouse tumor panel: L1210 (ip, survival time); format: in vivo; conditions: D1-9
Description: as §4, §5, §6, §7, §8, §9, §10, §11, §12, §13, §14

[17] = test system: strains of murine leukemia; assay: Activity against strains of murine leukemia resistant to NSC 119875 (general statement); conditions: mouse, in vivo
[18] = 5 mg/kg + cyclophosphamide 50 mg/kg + 5-fluorouracil 75 mg/kg
[19] = 5 mg/kg + cyclophosphamide 50 mg/kg, two experiments

## N[C@@H]1CCCC[C@H]1N.O=C([O-])c1ccc(C(=O)[O-])c(C(=O)[O-])c1.[H+].[Pt+2] [NSC-271674, 4-Carboxyphthalato(1,2-diaminocyclohexane)platinum(II)]
[1]; 0.78 mg/kg
  % ILS: 19%
[1]; 1.56 mg/kg
  % ILS: 19%
[1]; 3.13 mg/kg
  % ILS: 41%
[1]; 6.25 mg/kg
  % ILS: 58%
  questionably toxic deaths: 2 deaths
[1]; 12.5 mg/kg
  % ILS: 147%
[1]; 25 mg/kg
  % ILS: 86%
[1]; all doses
  cures: No cures
[2]; cyclophosphamide 50 mg/kg, optionally 5-FU 75 mg/kg or HU 1000 mg/kg
  effect of combination with cyclophosphamide (in words): potentiated
[2]; mice
  antileukemic activity (in words): antileukemic activity
  effective dosage: 5-60 mg/kg of body weight
[3]
  ID50 (concentration required to inhibit the growth of cells by 50 percent): 0.30 mg/L
[4]
  ID50 (concentration required to inhibit the growth of cells by 50 percent): 0.23 mg/L
[5]; 0.78 mg/kg
  % ILS: 27%
  Cures (of 10): 0 of 10
[5]; 1.56 mg/kg
  % ILS: 33%
  Cures (of 10): 0 of 10
[5]; 3.13 mg/kg
  % ILS: 46%
  Cures (of 10): 0 of 10
[5]; 6.25 mg/kg
  % ILS: 163%
  Cures (of 10): 1 of 10
[5]; 12.5 mg/kg
  % ILS: 191%
  Cures (of 10): 2 of 10
[5]; 25 mg/kg
  % ILS: 344%
  Cures (of 10): 5 of 10
[6]
  % ILS: 56%
  Survival: 20.7 days
[7]
  approximate LD50: ~75 mg/kg
[8]; Lewis lung first line, optimal dose NSC-119875 2, NSC-271674 3.12 mg/kg/inj
  % T/C (survival time) at optimal dose: 122%
[8]; Lewis lung second line, optimal dose NSC-119875 2, NSC-271674 6.25 mg/kg/inj
  % T/C (survival time) at optimal dose: 127%
[9]; 5 mg/kg ip
  % increase in life span (% ILS): 70%
[9]; 10 mg/kg ip
  % increase in life span (% ILS): 118%
[9]; 20 mg/kg ip
  % increase in life span (% ILS): 119%
[9]; 25 mg/kg ip
  % increase in life span (% ILS): 139%
[9]; 40 mg/kg ip
  % increase in life span (% ILS): 232%
[9]; 50 mg/kg ip
  mice survived > 60 days: 1 of 8
  % increase in life span (% ILS): 288%
[9]; 60 mg/kg ip
  mice survived > 60 days: 1 of 8
  % increase in life span (% ILS): 174%
[10]; Colon #38 first line, optimal dose NSC-119875 8, NSC-271674 12.5 mg/kg/inj
  % T/C (tumor weight) at optimal dose: 50%
[10]; Colon #38 second line, optimal dose NSC-119875 16, NSC-271674 50 mg/kg/inj
  % T/C (tumor weight) at optimal dose: 33%
[11]; against NSC 119875
  renal toxicity (in words): superior results in testing for renal toxicity
[11]; relative to NSC-119875
  Body Weight Loss score: 3
  Clinical Chemistry - Blood Urea Nitrogen score: 1
  Clinical Chemistry - Creatinine score: 1
  Clinical Chemistry - Serum Glutamic Pyruvic Transaminase score: 3
  Hematology - Hematocrit score: 3
  Hematology - White Blood Cell score: 3
  Histopathology - Gastrointestinal score: 1
  Histopathology - Hematopoietic score: 5
  Histopathology - Lymphatic score: 1
  Histopathology - Renal score: 2
[11]; sum of the ten scores
  TOTAL SCORE: 23
[12]; [18]
  % ILS: 673%
  >60 day survivors: 8 of 10
[12]; [19]
  % ILS: 416% and 217%
  >60 day survivors: 3 of 10 and no
[12]; 5 mg/kg alone, three experiments
  % ILS: 51% and 42% and 39%
[13]; B16 first line, optimal dose NSC-119875 2, NSC-271674 6.25 mg/kg/inj
  % T/C (survival time) at optimal dose: 171%
[13]; B16 second line, optimal dose NSC-119875 1, NSC-271674 1.56 mg/kg/inj
  % T/C (survival time) at optimal dose: 159%
[14]
  % ILS: 201%
  Survival: 33.3 days
[15]; CD8F1 first line, optimal dose NSC-119875 8, NSC-271674 6.25 mg/kg/inj
  % T/C (tumor weight) at optimal dose: 11%
[15]; CD8F1 second line, optimal dose NSC-119875 8, NSC-271674 25 mg/kg/inj
  % T/C (tumor weight) at optimal dose: 25%
[16]; L1210 first line, optimal dose NSC-119875 2, NSC-271674 0.78 mg/kg/inj
  % T/C (survival time) at optimal dose: 174%
[16]; L1210 second line, optimal dose NSC-119875 2, NSC-271674 1.56 mg/kg/inj
  % T/C (survival time) at optimal dose: 325%
[17]
  activity against NSC 119875-exhausted strains (in words): appears to be active
